Measured values published in article PMC4923908, “In vitro and in vivo study of epigallocatechin-3-gallate-induced apoptosis in aerobic glycolytic hepatocellular carcinoma cells involving inhibition of phosphofructokinase activity” (Scientific Reports, 2016).

T1: Phosphofructokinase (PFK), purified from rabbit skeletal muscle (Oryctolagus cuniculus, UniProt P00511)
T1 construct: gene PFKM
T1 sequence (P00511 2-780): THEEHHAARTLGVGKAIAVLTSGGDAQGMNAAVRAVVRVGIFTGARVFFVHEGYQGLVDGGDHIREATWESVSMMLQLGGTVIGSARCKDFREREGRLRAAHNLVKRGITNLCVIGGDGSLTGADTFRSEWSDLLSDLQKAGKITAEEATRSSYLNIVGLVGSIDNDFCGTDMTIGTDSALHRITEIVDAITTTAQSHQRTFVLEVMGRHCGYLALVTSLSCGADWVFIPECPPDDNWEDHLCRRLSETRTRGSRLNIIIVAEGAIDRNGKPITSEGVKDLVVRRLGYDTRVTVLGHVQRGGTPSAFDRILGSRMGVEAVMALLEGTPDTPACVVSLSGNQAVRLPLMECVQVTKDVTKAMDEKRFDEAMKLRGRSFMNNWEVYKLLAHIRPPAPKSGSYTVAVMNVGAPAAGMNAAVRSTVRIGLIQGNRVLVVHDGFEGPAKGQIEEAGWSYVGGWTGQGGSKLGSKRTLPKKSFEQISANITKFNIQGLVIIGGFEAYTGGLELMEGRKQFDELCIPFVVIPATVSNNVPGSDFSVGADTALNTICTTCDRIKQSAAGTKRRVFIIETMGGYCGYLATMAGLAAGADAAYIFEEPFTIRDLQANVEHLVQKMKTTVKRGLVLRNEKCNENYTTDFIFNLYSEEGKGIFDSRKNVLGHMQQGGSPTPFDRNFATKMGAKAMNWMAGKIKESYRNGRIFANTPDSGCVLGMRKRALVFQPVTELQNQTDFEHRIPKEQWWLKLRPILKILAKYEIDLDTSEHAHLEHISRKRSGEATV


Legend:
[1] = molecular target: T1, Phosphofructokinase (PFK), purified from rabbit skeletal muscle; experiment: radiometric assay of purified PFK ([γ-32P]ATP); supported by intrinsic fluorescence center-of-mass shift (tetramer to dimer); format: biochemical
[2] = molecular target: the molecule itself; experiment: intrinsic fluorescence spectra (center of mass); purified PFK incubated 1 h with 0, 25, 50, 100 and 200 uM EGCG; conditions as for the radioassay (50 mM Tris-HCl pH 7.4, 5 mM MgCl2, 5 mM (NH4)2SO4, 1 mM F6P, 1 mM ATP, 1 mg/ml purified PFK); excitation 280 nm, emission 300-400 nm; tetramer to dimers

Row | Molecule | IC50 [1] | stoichiometry N [2]
1 | O=C(O[C@@H]1Cc2c(O)cc(O)cc2O[C@@H]1c1cc(O)c(O)c(O)c1)c1cc(O)c(O)c(O)c1 [EGCG, epigallocatechin-3-gallate] | 124 µM | 
2 | Phosphofructokinase (PFK) purified from rabbit skeletal muscle (enzyme, UniProt P00511 1-780, looked up, Phosphofructokinase from rabbit skeletal muscle (muscle-type ATP-dependent 6-phosphofructokinase); no identifier or residues printed; The number of copies therefore depends on the condition; also called purified PFK; PFK1; source: purified from rabbit skeletal muscle) MTHEEHHAARTLGVGKAIAVLTSGGDAQGMNAAVRAVVRVGIFTGARVFFVHEGYQGLVDGGDHIREATWESVSMMLQLGGTVIGSARCKDFREREGRLRAAHNLVKRGITNLCVIGGDGSLTGADTFRSEWSDLLSDLQKAGKITAEEATRSSYLNIVGLVGSIDNDFCGTDMTIGTDSALHRITEIVDAITTTAQSHQRTFVLEVMGRHCGYLALVTSLSCGADWVFIPECPPDDNWEDHLCRRLSETRTRGSRLNIIIVAEGAIDRNGKPITSEGVKDLVVRRLGYDTRVTVLGHVQRGGTPSAFDRILGSRMGVEAVMALLEGTPDTPACVVSLSGNQAVRLPLMECVQVTKDVTKAMDEKRFDEAMKLRGRSFMNNWEVYKLLAHIRPPAPKSGSYTVAVMNVGAPAAGMNAAVRSTVRIGLIQGNRVLVVHDGFEGPAKGQIEEAGWSYVGGWTGQGGSKLGSKRTLPKKSFEQISANITKFNIQGLVIIGGFEAYTGGLELMEGRKQFDELCIPFVVIPATVSNNVPGSDFSVGADTALNTICTTCDRIKQSAAGTKRRVFIIETMGGYCGYLATMAGLAAGADAAYIFEEPFTIRDLQANVEHLVQKMKTTVKRGLVLRNEKCNENYTTDFIFNLYSEEGKGIFDSRKNVLGHMQQGGSPTPFDRNFATKMGAKAMNWMAGKIKESYRNGRIFANTPDSGCVLGMRKRALVFQPVTELQNQTDFEHRIPKEQWWLKLRPILKILAKYEIDLDTSEHAHLEHISRKRSGEATV |  | 2
